Experimental data reported in patent publication US20240293413A1, “COMPOUND AND METHOD FOR TREATING CHEMOTHERAPY-RELATED GASTROINTESTINAL SIDE EFFECTS” (ONQUALITY PHARMACEUTICALS CHINA LTD., priority 2021, published 2024).

Columns and labels:
[1] = tested on: Chemotherapeutic agent-caused constipation models of Balb/c mice; assay: Examples 272-342 (Table 5): oral CDK inhibitor, relief of constipation caused by a chemotherapeutic agent; assay type: in vivo;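 note: percent of treated mice relieved versus chemotherapy group by feces reduction rate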
Procedure, shortened: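 Balb/c mice, 10 per group: control, chemotherapeutic agent alone, or intragastric CDK inhibitor followed by the chemotherapeutic agent. Feces produced within 3 hours were recorded daily, and feces reduction rate (%) was calculated relative to the control group.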

[2] = tested on: constipation caused by a chemotherapeutic agent in Balb/c mice; assay: Examples 406-443 (Table 8): various administration modes of the CDK inhibitor, relief of constipation caused by a chemotherapeutic agent; assay type: in vivo;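 for Relative remission rate of oral administration: percent of treated mice relieved versus chemotherapy group by feces reduction rate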;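 for Relative remission rate of other administration mode: percent of treated mice relieved versus chemotherapy group by feces reduction rate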
Procedure, shortened: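 Balb/c mice (10 per group) received the CDK inhibitor orally, intravenously via the tail vein, intraperitoneally, intramuscularly, or topically on shaved abdominal skin, followed by a chemotherapeutic agent; vehicle groups served as controls. Feces amount over 3 h was recorded daily. Feces reduction rate was calculated relative to the control group.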

CN1CCN(c2ccc(Nc3ncc4cc5n(c4n3)C3(CCCCC3)CNC5=O)nc2)CC1 [Trilaciclib (G1T28), Trilaciclib]
Relative remission rate ([1]; Example 272, Fluorouracil (5-Fu) intraperitoneal injection 175 mg/kg single, CDK inhibitor oral 100 mg/kg single, 0.5 h before, cycle 7 days): 50% | Relative remission rate ([1]; Example 273, Fluorouracil (5-Fu) intraperitoneal injection 175 mg/kg single, CDK inhibitor oral 100 mg/kg single, 1 h before, cycle 7 days): 50% | Relative remission rate ([1]; Example 274, Fluorouracil (5-Fu) intraperitoneal injection 175 mg/kg single, CDK inhibitor oral 100 mg/kg single, 2 h before, cycle 7 days): 50% | Relative remission rate ([1]; Example 275, Fluorouracil (5-Fu) intraperitoneal injection 175 mg/kg single, CDK inhibitor oral 100 mg/kg single, 3 h before, cycle 7 days): 40% | Relative remission rate ([1]; Example 276, Fluorouracil (5-Fu) intraperitoneal injection 175 mg/kg single, CDK inhibitor oral 100 mg/kg single, 4 h before, cycle 7 days): 60% | Relative remission rate ([1]; Example 277, Fluorouracil (5-Fu) intraperitoneal injection 175 mg/kg single, CDK inhibitor oral 100 mg/kg single, 5 h before, cycle 7 days): 40% | Relative remission rate ([1]; Example 278, Fluorouracil (5-Fu) intraperitoneal injection 175 mg/kg single, CDK inhibitor oral 100 mg/kg single, 6 h before, cycle 7 days): 60% | Relative remission rate ([1]; Example 279, Fluorouracil (5-Fu) intraperitoneal injection 175 mg/kg single, CDK inhibitor oral 100 mg/kg single, 7 h before, cycle 7 days): 70% | Relative remission rate ([1]; Example 280, Fluorouracil (5-Fu) intraperitoneal injection 175 mg/kg single, CDK inhibitor oral 100 mg/kg single, 8 h before, cycle 7 days): 70% | Relative remission rate ([1]; Example 281, Fluorouracil (5-Fu) intraperitoneal injection 175 mg/kg single, CDK inhibitor oral 100 mg/kg single, 9 h before, cycle 7 days): 60% | Relative remission rate ([1]; Example 282, Fluorouracil (5-Fu) intraperitoneal injection 175 mg/kg single, CDK inhibitor oral 100 mg/kg single, 10 h before, cycle 7 days): 60% | Relative remission rate ([1]; Example 283, Fluorouracil (5-Fu) intraperitoneal injection 175 mg/kg single, CDK inhibitor oral 100 mg/kg single, 11 h before, cycle 7 days): 50% | Relative remission rate ([1]; Example 284, Fluorouracil (5-Fu) intraperitoneal injection 175 mg/kg single, CDK inhibitor oral 100 mg/kg single, 12 h before, cycle 7 days): 70% | Relative remission rate ([1]; Example 285, Fluorouracil (5-Fu) intraperitoneal injection 175 mg/kg single, CDK inhibitor oral 100 mg/kg single, 13 h before, cycle 7 days): 40% | Relative remission rate ([1]; Example 286, Fluorouracil (5-Fu) intraperitoneal injection 175 mg/kg single, CDK inhibitor oral 100 mg/kg single, 14 h before, cycle 7 days): 60% | Relative remission rate ([1]; Example 287, Fluorouracil (5-Fu) intraperitoneal injection 175 mg/kg single, CDK inhibitor oral 100 mg/kg single, 16 h before, cycle 7 days): 50% | Relative remission rate ([1]; Example 288, Fluorouracil (5-Fu) intraperitoneal injection 175 mg/kg single, CDK inhibitor oral 100 mg/kg single, 18 h before, cycle 7 days): 60% | Relative remission rate ([1]; Example 289, Fluorouracil (5-Fu) intraperitoneal injection 175 mg/kg single, CDK inhibitor oral 100 mg/kg single, 20 h before, cycle 7 days): 50% | Relative remission rate ([1]; Example 290, Fluorouracil (5-Fu) intraperitoneal injection 175 mg/kg single, CDK inhibitor oral 100 mg/kg single, 22 h before, cycle 7 days): 30% | Relative remission rate ([1]; Example 291, Fluorouracil (5-Fu) intraperitoneal injection 175 mg/kg single, CDK inhibitor oral 100 mg/kg single, 24 h before, cycle 7 days): 30% | Relative remission rate ([1]; Example 292, Fluorouracil (5-Fu) intraperitoneal injection 175 mg/kg single, CDK inhibitor oral 100 mg/kg single, 48 h before, cycle 7 days): 0% | Relative remission rate ([1]; Example 303, Fluorouracil and oxaliplatin intraperitoneal injection 100 (F) 10 (O) mg/kg single, CDK inhibitor oral 100 mg/kg single, 24 h before, cycle 10 days): 40% | Relative remission rate ([1]; Example 311, Irinotecan (CPT-11) intramuscular injection 260 mg/kg single, CDK inhibitor oral 50 mg/kg single, 1 h before, cycle 7 days): 60% | Relative remission rate ([1]; Example 314, Fluorouracil and oxaliplatin and irinotecan intraperitoneal injection 70 (F) 5 (O) 100 (I) mg/kg single, CDK inhibitor oral 180 mg/kg single, 12 h before, cycle 10 days): 60% | Relative remission rate ([1]; Example 323, Docetaxel (DTX) intravenous injection 10 mg/kg single, CDK inhibitor oral 100 mg/kg single, 9 h before, cycle 8 days): 60% | Relative remission rate ([1]; Example 327, Cytarabine (Ara-C) intraperitoneal injection 600 mg/kg single, CDK inhibitor oral 100 mg/kg single, 0.5 h before, cycle 8 days): 80% | Relative remission rate ([1]; Example 328, Cytarabine (Ara-C) intraperitoneal injection 600 mg/kg single, CDK inhibitor oral 100 mg/kg single, 4 h before, cycle 8 days): 60% | Relative remission rate ([1]; Example 329, Cytarabine (Ara-C) intraperitoneal injection 600 mg/kg single, CDK inhibitor oral 100 mg/kg single, 8 h before, cycle 8 days): 40% | Relative remission rate ([1]; Example 330, Cytarabine (Ara-C) intraperitoneal injection 600 mg/kg single, CDK inhibitor oral 100 mg/kg single, 12 h before, cycle 8 days): 40% | Relative remission rate ([1]; Example 331, Cytarabine (Ara-C) intraperitoneal injection 600 mg/kg single, CDK inhibitor oral 100 mg/kg single, 24 h before, cycle 8 days): 40% | Relative remission rate ([1]; Example 332, Cytarabine (Ara-C) intraperitoneal injection 600 mg/kg single, CDK inhibitor oral 100 mg/kg single, 48 h before, cycle 8 days): 0% | Relative remission rate of other administration mode ([2]; Example 411, Doxorubicin (Dox) intravenous injection 12 mg/kg single, CDK inhibitor intraperitoneal injection 100 mg/kg single, 24 h before, cycle 8 days): 10% | Relative remission rate of oral administration ([2]; Example 411, Doxorubicin (Dox) intravenous injection 12 mg/kg single, CDK inhibitor oral 100 mg/kg single, 24 h before, cycle 8 days): 30% | Relative remission rate of other administration mode ([2]; Example 421, Etoposide and cisplatin intraperitoneal injection 50€ 5 mg/kg single, CDK inhibitor intravenous injection 100 mg/kg single, 24 h before, cycle 7 days): 10% | Relative remission rate of oral administration ([2]; Example 421, Etoposide and cisplatin intraperitoneal injection 50€ 5 mg/kg single, CDK inhibitor oral 150 mg/kg single, 24 h before, cycle 7 days): 20% | Relative remission rate of other administration mode ([2]; Example 436, Gemcitabine intramuscular injection 120 mg/kg single, CDK inhibitor intramuscular injection 100 mg/kg single, 24 h before, cycle 8 days): 10% | Relative remission rate of oral administration ([2]; Example 436, Gemcitabine intramuscular injection 120 mg/kg single, CDK inhibitor oral 100 mg/kg single, 24 h before, cycle 8 days): 40% | Relative remission rate of other administration mode ([2]; Example 438, Gemcitabine and Carboplatin intravenous injection 120 (G) 100 (C) mg/kg single, CDK inhibitor intraperitoneal injection 100 mg/kg single, 12 h before, cycle 8 days): 20% | Relative remission rate of oral administration ([2]; Example 438, Gemcitabine and Carboplatin intravenous injection 120 (G) 100 (C) mg/kg single, CDK inhibitor oral 100 mg/kg single, 12 h before, cycle 8 days): 50% | Relative remission rate of other administration mode ([2]; Example 439, Gemcitabine and Carboplatin intravenous injection 120 (G) 100 (C) mg/kg single, CDK inhibitor intraperitoneal injection 100 mg/kg single, 24 h before, cycle 8 days): 20% | Relative remission rate of oral administration ([2]; Example 439, Gemcitabine and Carboplatin intravenous injection 120 (G) 100 (C) mg/kg single, CDK inhibitor oral 100 mg/kg single, 24 h before, cycle 8 days): 50% | improvement of constipation by oral administration, intraperitoneal injection, intramuscular injection, local administration ([2]; constipation caused by doxorubicin, etoposide, etoposide plus cisplatin, carboplatin, gemcitabine, gemcitabine plus carboplatin, under certain conditions, oral most significant): can significantly improve constipation
